Results published in patent US12459899B2, “Isoquinolinone derivatives, method for preparing the same, and pharmaceutical composition for preventing or treating poly(ADP-ribose) polymerase-1-related diseases, comprising the same as active ingredient” (DIGMBIO. INC., priority 2019, dated 2025).

Each molecule was assayed against PARP-1 (poly[ADP-ribose] polymerase 1) enzyme (Homo sapiens (Human), UniProt P09874) (assay: PARP-1 (poly[ADP-ribose] polymerase 1) enzyme inhibitory ability, Trevigen assay kit). Conditions: 1 nM compound; read-out: PAR P-1 Inhibitory ability at 1 nM.
PARP-1 (poly[ADP-ribose] polymerase 1) enzyme, sequence (P09874 whole entry): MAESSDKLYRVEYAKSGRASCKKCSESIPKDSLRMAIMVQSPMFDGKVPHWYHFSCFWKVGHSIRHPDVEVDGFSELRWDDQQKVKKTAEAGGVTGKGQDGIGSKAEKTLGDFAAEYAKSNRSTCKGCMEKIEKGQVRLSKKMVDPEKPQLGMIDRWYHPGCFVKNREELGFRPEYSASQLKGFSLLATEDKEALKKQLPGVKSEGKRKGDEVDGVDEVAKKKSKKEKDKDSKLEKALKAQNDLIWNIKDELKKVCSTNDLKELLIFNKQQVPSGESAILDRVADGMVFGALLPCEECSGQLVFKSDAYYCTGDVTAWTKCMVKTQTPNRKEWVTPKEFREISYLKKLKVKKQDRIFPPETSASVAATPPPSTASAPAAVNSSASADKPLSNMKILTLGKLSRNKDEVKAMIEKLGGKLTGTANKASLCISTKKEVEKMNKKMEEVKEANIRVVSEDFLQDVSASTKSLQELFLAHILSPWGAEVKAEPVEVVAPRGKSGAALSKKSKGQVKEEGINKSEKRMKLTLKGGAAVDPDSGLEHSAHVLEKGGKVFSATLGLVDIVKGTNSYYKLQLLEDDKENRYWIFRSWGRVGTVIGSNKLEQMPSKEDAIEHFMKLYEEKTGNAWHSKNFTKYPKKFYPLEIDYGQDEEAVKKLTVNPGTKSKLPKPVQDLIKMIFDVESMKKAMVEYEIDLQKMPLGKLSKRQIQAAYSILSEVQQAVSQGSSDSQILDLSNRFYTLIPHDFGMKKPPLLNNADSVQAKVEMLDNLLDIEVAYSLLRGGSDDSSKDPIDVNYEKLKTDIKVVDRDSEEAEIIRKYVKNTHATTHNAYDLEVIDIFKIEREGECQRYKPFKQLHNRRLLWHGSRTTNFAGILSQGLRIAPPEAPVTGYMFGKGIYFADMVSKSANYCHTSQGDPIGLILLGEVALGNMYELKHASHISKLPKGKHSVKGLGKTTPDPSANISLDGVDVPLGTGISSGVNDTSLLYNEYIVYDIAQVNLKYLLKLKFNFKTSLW
Assay type: biochemical
Summary of the method: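 Human PARP-1 activity was measured with a Trevigen assay kit in histone-coated 96-well plates rehydrated with 50 μL of 1×PARP buffer for 30 minutes. Enzyme (0.5 unit/well) and compound were preincubated 10 minutes at room temperature, then 25 μL of 1×PARP cocktail with biotinylated NAD and activated DNA was added for 1 hour.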

Row | SMILES | inhibition at 0.001 µM [%]
1 | Cc1ccc(F)c2c(=O)[nH]c(CCC(=O)N3CC=C(c4ccc(C#N)cn4)CC3)cc12 [Example 140, 1′-(3-(8-fluoro-5-methyl-1-oxo-1,2-dihydroisoquinolin-3-yl)propanoyl)-1′,2′,3′,6′-tetrahydro-[2,4′-bipyridine]-5-carbonitrile] | < 50
2 | Cc1ccc(F)c2c(=O)[nH]c(CCC(=O)N3CC=C(c4ccc(C#N)c(F)c4)CC3)cc12 [Example 141, 2-fluoro-4-(1-(3-(8-fluoro-5-methyl-1-oxo-1,2-dihydroisoquinolin-3-yl)propanoyl)-1,2,3,6-tetrahydropyridin-4-yl)benzonitrile] | < 50
3 | Cc1ccc(F)c2c(=O)[nH]c(CCC(=O)N3CCN(c4cccc(F)c4)CC3)cc12 [Example 142, 8-fluoro-3-(3-(4-(3-fluorophenyl)piperazin-1-yl)-3-oxopropyl)-5-methylisoquinolin-1(2H)-one] | < 50
4 | Cc1ccc(F)c2c(=O)[nH]c(CCC(=O)N3CC=C(c4ccnc(F)c4)CC3)cc12 [Example 144, 8-fluoro-3-(3-(2′-fluoro-3,6-dihydro-[4,4′-bipyridine]-1(2H)-yl)-3-oxopropyl)-5-methylisoquinolin-1(2H)-one] | < 50
5 | Cc1ccc(F)c2c(=O)[nH]c(CCC(=O)N3CC=C(c4ccc(C#N)nc4)CC3)cc12 [Example 145, 1′-(3-(8-fluoro-5-methyl-1-oxo-1,2-dihydroisoquinolin-3-yl)propanoyl)-1′,2′,3′,6′-tetrahydro-[3,4′-bipyridine]-6-carbonitrile] | < 50
6 | COC(=O)c1ccc(N2CCN(C(=O)CCc3cc4c(C)ccc(F)c4c(=O)[nH]3)CC2)cc1 [Example 146, methyl 4-(4-(3-(8-fluoro-5-methyl-1-oxo-1,2-dihydroisoquinolin-3-yl)propanoyl)piperazin-1-yl)benzoate] | < 50
7 | Cc1ccc(F)c2c(=O)[nH]c(CCC(=O)N3CCN(c4ccc(C(=O)O)cc4)CC3)cc12 [Example 147, 4-(4-(3-(8-fluoro-5-methyl-1-oxo-1,2-dihydroisoquinolin-3-yl)propanoyl)piperazin-1-yl)benzoic acid] | < 50
8 | Cc1ccc(F)c2c(=O)[nH]c(CCC(=O)N3C4CCC3CN(c3ccc(C#N)cc3)C4)cc12 [Example 148, 4-(8-(3-(8-fluoro-5-methyl-1-oxo-1,2-dihydroisoquinolin-3-yl)propanoyl)-3,8-diazabicyclo[3.2.1]octan-3-yl)benzonitrile] | < 50
9 | Cc1cc(F)cc2c(=O)[nH]c(CCC(=O)N3CCN(c4ccc(C#N)cc4)CC3)cc12 [Example 149, 4-(4-(3-(7-fluoro-5-methyl-1-oxo-1,2-dihydroisoquinolin-3-yl)propanoyl)piperazin-1-yl)benzonitrile] | < 50
10 | Cc1cc(F)cc2c(=O)[nH]c(CCC(=O)N3CC=C(c4ccc(F)cc4)CC3)cc12 [Example 150, 7-fluoro-3-(3-(4-(4-fluorophenyl)-3,6-dihydropyridin-1(2H)-yl)-3-oxopropyl)-5-methylisoquinolin-1(2H)-one] | < 50
11 | Cc1cc(F)cc2c(=O)[nH]c(CCC(=O)N3CCN(c4ccc(C#N)nc4)CC3)cc12 [Example 151, 5-(4-(3-(7-fluoro-5-methyl-1-oxo-1,2-dihydroisoquinolin-3-yl)propanoyl)piperazin-1-yl)picolinonitrile] | < 50
12 | Cc1cc(F)cc2c(=O)[nH]c(CCC(=O)N3CCN(c4ccc(C#N)cn4)CC3)cc12 [Example 152, 6-(4-(3-(7-fluoro-5-methyl-1-oxo-1,2-dihydroisoquinolin-3-yl)propanoyl)piperazin-1-yl)nicotinonitrile] | < 50
13 | Cc1cc(F)cc2c(=O)[nH]c(CCC(=O)N3CCN(c4ccc(C#N)c(F)c4)CC3)cc12 [Example 153, 2-fluoro-4-(4-(3-(7-fluoro-5-methyl-1-oxo-1,2-dihydroisoquinolin-3-yl)propanoyl)piperazin-1-yl)benzonitrile] | < 50
14 | Cc1cc(F)cc2c(=O)[nH]c(CCC(=O)N3CCN(c4ccc(C#N)cc4F)CC3)cc12 [Example 154, 3-fluoro-4-(4-(3-(7-fluoro-5-methyl-1-oxo-1,2-dihydroisoquinolin-3-yl)propanoyl)piperazin-1-yl)benzonitrile] | < 50
15 | Cc1cc(F)cc2c(=O)[nH]c(CCC(=O)N3CCN(c4ccc(Cl)cc4)CC3)cc12 [Example 155, 3-(3-(4-(4-chlorophenyl)piperazin-1-yl)-3-oxopropyl)-7-fluoro-5-methylisoquinolin-1(2H)-one] | < 50
16 | Cc1cc(F)cc2c(=O)[nH]c(CCC(=O)N3CCN(c4cc(C#N)ccc4F)CC3)cc12 [Example 156, 4-fluoro-3-(4-(3-(7-fluoro-5-methyl-1-oxo-1,2-dihydroisoquinolin-3-yl)propanoyl)piperazin-1-yl)benzonitrile] | < 50
17 | Cc1cc(F)cc2c(=O)[nH]c(CCC(=O)N3CCN(c4cc(F)ccc4C#N)CC3)cc12 [Example 157, 4-fluoro-2-(4-(3-(7-fluoro-5-methyl-1-oxo-1,2-dihydroisoquinolin-3-yl)propanoyl)piperazin-1-yl)benzonitrile] | < 50

Row | SMILES | inhibition at 0.001 µM [%]
18 | Cc1cc(F)cc2c(=O)[nH]c(CCC(=O)N3CCN(c4ccc(F)c(C#N)c4)CC3)cc12 [Example 158, 2-fluoro-5-(4-(3-(7-fluoro-5-methyl-1-oxo-1,2-dihydroisoquinolin-3-yl)propanoyl)piperazin-1-yl)benzonitrile] | < 50
19 | Cc1cc(F)cc2c(=O)[nH]c(CCC(=O)N3CCN(c4ccc(F)cc4C#N)CC3)cc12 [Example 159, 5-fluoro-2-(4-(3-(7-fluoro-5-methyl-1-oxo-1,2-dihydroisoquinolin-3-yl)propanoyl)piperazin-1-yl)benzonitrile] | < 50
20 | Cc1cc(F)cc2c(=O)[nH]c(CCC(=O)N3CC=C(c4cc(C#N)ccc4F)CC3)cc12 [Example 160, 4-fluoro-3-(1-(3-(7-fluoro-5-methyl-1-oxo-1,2-dihydroisoquinolin-3-yl)propanoyl)-1,2,3,6-tetrahydropyridin-4-yl)benzonitrile] | < 50
21 | Cc1cc(F)cc2c(=O)[nH]c(CCC(=O)N3CC=C(c4ccc(F)cc4C#N)CC3)cc12 [Example 161, 5-fluoro-2-(1-(3-(7-fluoro-5-methyl-1-oxo-1,2-dihydroisoquinolin-3-yl)propanoyl)-1,2,3,6-tetrahydropyridin-4-yl)benzonitrile] | < 50
22 | Cc1cc(F)cc2c(=O)[nH]c(CCC(=O)N3CC=C(c4ccc(F)cc4F)CC3)cc12 [Example 162, 3-(3-(4-(2,4-difluorophenyl)-3,6-dihydropyridin-1(2H)-yl)-3-oxopropyl)-7-fluoro-5-methylisoquinolin-1(2H)-one] | < 50
23 | Cc1cc(F)cc2c(=O)[nH]c(CCC(=O)N3CC=C(c4cc(F)cc(C#N)c4)CC3)cc12 [Example 163, 3-fluoro-5-(1-(3-(7-fluoro-5-methyl-1-oxo-1,2-dihydroisoquinolin-3-yl)propanoyl)-1,2,3,6-tetrahydropyridin-4-yl)benzonitrile] | < 50
24 | Cc1cc(F)cc2c(=O)[nH]c(CCC(=O)N3CC=C(c4cccc(F)c4)CC3)cc12 [Example 164, 7-fluoro-3-(3-(4-(3-fluorophenyl)-3,6-dihydropyridin-1(2H)-yl)-3-oxopropyl)-5-methylisoquinolin-1(2H)-one] | < 50
25 | Cc1cc(F)cc2c(=O)[nH]c(CCC(=O)N3CCN(c4cc(F)cc(C#N)c4)CC3)cc12 [Example 166, 3-fluoro-5-(4-(3-(7-fluoro-5-methyl-1-oxo-1,2-dihydroisoquinolin-3-yl)propanoyl)piperazin-1-yl)benzonitrile] | < 50
26 | Cc1cc(F)cc2c(=O)[nH]c(CCC(=O)N3CCN(c4cccc(F)c4)CC3)cc12 [Example 167, 7-fluoro-3-(3-(4-(3-fluorophenyl)piperazin-1-yl)-3-oxopropyl)-5-methylisoquinolin-1(2H)-one] | < 50
27 | Cc1cc(F)cc2c(=O)[nH]c(CCC(=O)N3CC=C(c4ccnc(F)c4)CC3)cc12 [Example 168, 7-fluoro-3-(3-(2′-fluoro-3,6-dihydro-[4,4′-bipyridine]-1(2H)-yl)-3-oxopropyl)-5-methylisoquinolin-1(2H)-one] | < 50
28 | O=C(CCc1cc2cccc(F)c2c(=O)[nH]1)N1CCN(C(=O)C2CCCCC2)CC1 [Example 170, 3-(3-(4-(cyclohexanecarbonyl)piperazin-1-yl)-3-oxopropyl)-8-fluoroisoquinolin-1(2H)-one] | < 50
29 | Cc1ccc(F)c2c(=O)[nH]c(CCC(=O)N3CCN(C(=O)C4CCCCC4)CC3)cc12 [Example 171, 3-(3-(4-(cyclohexanecarbonyl)piperazin-1-yl)-3-oxopropyl)-8-fluoro-5-methylisoquinolin-1(2H)-one] | < 50
30 | O=C(CCc1cc2ccc(F)cc2c(=O)[nH]1)N1CCN(C(=O)C2CCCCC2)CC1 [Example 172, 3-(3-(4-(cyclohexanecarbonyl)piperazin-1-yl)-3-oxopropyl)-7-fluoroisoquinolin-1(2H)-one] | < 50
31 | Cc1cc(F)cc2c(=O)[nH]c(CCC(=O)N3CCN(C(=O)C4CCCCC4)CC3)cc12 [Example 173, 3-(3-(4-(cyclohexanecarbonyl)piperazin-1-yl)-3-oxopropyl)-7-fluoro-5-methylisoquinolin-1(2H)-one] | < 50
32 | O=C(CCc1cc2cccc(F)c2c(=O)[nH]1)N1CCN(C(=O)C2CCCC2)CC1 [Example 174, 3-(3-(4-(cyclopentanecarbonyl)piperazin-1-yl)-3-oxopropyl)-8-fluoroisoquinolin-1(2H)-one] | < 50
33 | Cc1ccc(F)c2c(=O)[nH]c(CCC(=O)N3CCN(C(=O)C4CCCC4)CC3)cc12 [Example 175, 3-(3-(4-(cyclopentanecarbonyl)piperazin-1-yl)-3-oxopropyl)-8-fluoro-5-methylisoquinolin-1(2H)-one] | < 50

Same assay, conditions: PARP-1 enzyme activity

Row | SMILES | IC50 [nM]
34 | Cc1cc(F)cc2c(=O)[nH]c(CCC(=O)N3CCN(c4ccc(C#N)nc4)CC3)cc12 [Example 151, 5-(4-(3-(7-fluoro-5-methyl-1-oxo-1,2-dihydroisoquinolin-3-yl)propanoyl)piperazin-1-yl)picolinonitrile] | 4.05
35 | Cc1cc(F)cc2c(=O)[nH]c(CCC(=O)N3CCN(c4ccc(C#N)cn4)CC3)cc12 [Example 152, 6-(4-(3-(7-fluoro-5-methyl-1-oxo-1,2-dihydroisoquinolin-3-yl)propanoyl)piperazin-1-yl)nicotinonitrile] | 0.85
